ChEMBL document CHEMBL1201862, “PubChem BioAssay data set” (2004)
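Growth conditions: 96-well plates. Treatment: test compound, 48 hours, 5 concentrations. Analysis: linear interpolation between bracketing concentrations; unreached endpoints set to highest concentration. At the GI50, growth is halved.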 Calls of active or inactive are those of the source. Cut-off read from the data, not from the text of the source: active = GI50 up to about 1.1 µM and inactive = higher.

Tests used:
Assay in all cases: growth of human tumour cells (NCI), 48 h
TK-10 = system: TK-10
NCI-H23 = system: NCI-H23
HCC 2998 = system: HCC 2998
SK-MEL-5 = system: SK-MEL-5
U-251 = system: U-251
786-0 = system: 786-0
NCI-H522 = system: NCI-H522
Malme-3M = system: Malme-3M
SNB-19 = system: SNB-19
K562 = system: K562
OVCAR-3 = system: OVCAR-3
ACHN = system: ACHN
HCT-116 = system: HCT-116
SK-MEL-2 = system: SK-MEL-2
SW-620 = system: SW-620
UACC-257 = system: UACC-257
HOP-92 = system: HOP-92
MOLT-4 = system: MOLT-4
CCRF-CEM = system: CCRF-CEM

Measured: GI50

N#CC1C(=O)C(=O)N(c2ccccc2)C1=O (stereo not drawn)
inactive: TK-10 > 100 µM | NCI-H23 > 100 µM | HCC 2998 > 100 µM | SK-MEL-5 > 100 µM | U-251 > 100 µM | 786-0 > 100 µM | NCI-H522 > 100 µM | Malme-3M > 100 µM | SNB-19 > 100 µM | K562 > 100 µM | OVCAR-3 > 100 µM | ACHN > 100 µM | HCT-116 > 100 µM | SK-MEL-2 > 100 µM | SW-620 > 100 µM | UACC-257 > 100 µM | HOP-92 > 100 µM

CC1=C(C(=O)NCc2ccccc2)C(c2ccco2)C(C(=O)NCc2ccccc2)=C(C)N1
inactive: MOLT-4 23 µM | TK-10 57.4 µM | NCI-H23 > 100 µM | HCC 2998 47 µM | SK-MEL-5 > 100 µM | U-251 > 100 µM | NCI-H522 85.1 µM | Malme-3M > 100 µM | SNB-19 > 100 µM | K562 30.3 µM | OVCAR-3 > 100 µM | ACHN 31.5 µM | HCT-116 71.4 µM | SK-MEL-2 27.6 µM | CCRF-CEM 45.8 µM | SW-620 50.9 µM | UACC-257 > 100 µM | HOP-92 92.9 µM

CCOC(=O)CSC(=O)NCCCl
inactive: TK-10 > 100 µM | NCI-H23 > 100 µM | HCC 2998 > 100 µM | U-251 > 100 µM | 786-0 > 100 µM | NCI-H522 > 100 µM | Malme-3M > 100 µM | SNB-19 > 100 µM | OVCAR-3 > 100 µM | ACHN > 100 µM | HCT-116 > 100 µM | SK-MEL-2 > 100 µM | SW-620 > 100 µM | UACC-257 > 100 µM | HOP-92 > 100 µM

CC(=O)Nc1ccc(C(=O)NN2C(=O)C(Cl)C2c2cccc([N+](=O)[O-])c2)cc1 (stereo not drawn)
inactive: MOLT-4 > 100 µM | TK-10 > 100 µM | NCI-H23 > 100 µM | HCC 2998 > 100 µM | SK-MEL-5 > 100 µM | U-251 > 100 µM | NCI-H522 > 100 µM | Malme-3M > 100 µM | SNB-19 > 100 µM | K562 > 100 µM | OVCAR-3 > 100 µM | ACHN > 100 µM | HCT-116 > 100 µM | SK-MEL-2 > 100 µM | CCRF-CEM > 100 µM | SW-620 > 100 µM | UACC-257 > 100 µM | HOP-92 > 100 µM
